# Measured values: patent US20230190705A1, “DRUG COMBINATION FOR TREATING DIABETES MELLITUS AND COMPLICATIONS THEREOF AND PHARMACEUTICAL COMPOSITION OF DRUG COMBINATION” (Chengdu Chipscreen Pharmaceutical Ltd., priority 2020, published 2023)
# Legend:
# diabetic patients = conditions: clinical studies; cited from earlier work
# db/db male mice [1] = assay: Blood lipids (serum TC and TG), chiglitazar sodium with empagliflozin (Example 3); type: in vivo; conditions: oral once a day for 14 days, serum on Day 15, 10 mg/kg chiglitazar sodium, 3 mg/kg empagliflozin or both, FIG. 3
# Experimental: Experimental design: the effects on total cholesterol (TC) and triglyceride (TG) in mouse serum of single and combined medication were investigated, by oral administration of chiglitazar sodium, empagliflozin, or a combination thereof to diabetic mice.
# Experimental procedure: 6-Week-old db/db male mice were orally administered once a day with 100 µL of vehicle (0.1% sodium carboxymethylcellulose), 10 mg/kg chiglitazar sodium, 3 mg/kg empagliflozin, or a combination of chiglitazar sodium and empagliflozin at the same doses simultaneously, respectively, according to body weight. Wild-type C57BLKS/Jnju mice were used as normal control (administered with vehicle). The period of administration was 14 days, and the animals were treated and dissected on Day 15. Whole blood was collected, serum was centrifuged and serum TC and TG were measured by biochemical analyzer.
# db/db male mice [2] = assay: Body weight and fasting blood glucose, chiglitazar sodium with dapagliflozin (Example 2); type: in vivo; conditions: oral once a day for 14 days, 10 mg/kg chiglitazar sodium, 1.5 mg/kg dapagliflozin or both, FIG. 2
# Experimental: Experimental design: the effects on body weight and blood glucose of single and combined medication were investigated, by oral administration of chiglitazar sodium, dapagliflozin, or a combination thereof to mice.
# Wild-type C57BLKS/Jnju mice were used as normal control (administered with vehicle). The period of administration was 14 days, and the animals were treated and dissected on Day 15. Starting from the administration, the mice were subjected to weighing and measurement of fasting blood glucose (4-6 hours of fasting) every 3 days.
# db/db male mice [3] = assay: Blood lipids (serum TC and TG), chiglitazar sodium with dapagliflozin (Example 4); type: in vivo; conditions: oral once a day for 14 days, serum on Day 15, 10 mg/kg chiglitazar sodium, 1.5 mg/kg dapagliflozin or both, FIG. 4
# Experimental: Experimental design: the effects on total cholesterol (TC) and triglyceride (TG) in mouse serum of single and combined medication were investigated, by oral administration of chiglitazar sodium, dapagliflozin, or a combination thereof to diabetic mice.
# Wild-type C57BLKS/Jnju mice were used as normal control (administered with vehicle). The period of administration was 14 days, and the animals were treated and dissected on Day 15. Whole blood was collected, serum was centrifuged and serum TC and TG were measured by biochemical analyzer.
# db/db male mice [4] = assay: Body weight and fasting blood glucose, chiglitazar sodium with empagliflozin (Example 1); type: in vivo; conditions: oral once a day for 14 days, 10 mg/kg chiglitazar sodium, 3 mg/kg empagliflozin or both, FIG. 1; for fasting blood glucose: 4-6 hours of fasting
# Experimental: Experimental design: the effects on body weight and blood glucose of single and combined medication were investigated, by oral administration of chiglitazar sodium, empagliflozin, or a combination thereof to mice.
# Experimental procedure: 6-Week-old db/db male mice were orally administered once a day with 100 µL of vehicle (0.1% sodium carboxymethylcellulose), 10 mg/kg chiglitazar sodium, 3 mg/kg empagliflozin, or a combination of chiglitazar sodium and empagliflozin at the same doses simultaneously, respectively, according to body weight. Wild-type C57BLKS/Jnju mice were used as normal control (administered with the vehicle). The period of administration was 14 days, and the animals were treated and dissected on Day 15. Starting from the administration, the mice were subjected to weighing and measurement of fasting blood glucose (4-6 hours of fasting) every 3 days.
SMILES,efficacy on blood glucose and lipids in diabetic patients (diabetic patients),weight gain effect in diabetic patients (diabetic patients),serum total cholesterol (TC) (db/db male mice [1]),serum triglyceride (TG) (db/db male mice [1]),fasting blood glucose (db/db male mice [2]; 4-6 hours of fasting),body weight (db/db male mice [2]),serum total cholesterol (TC) (db/db male mice [3]),serum triglyceride (TG) (db/db male mice [3]),fasting blood glucose (db/db male mice [4]),body weight (db/db male mice [4])
O=C(c1ccc(F)cc1)c1ccccc1NC(Cc1ccc(OCCn2c3ccccc3c3ccccc32)cc1)C(=O)O (stereo not shown) [chiglitazar sodium],has efficacy in reducing blood glucose and improving lipids in diabetic patients,having certain weight gain effect,could reduce the serum total cholesterol and triglyceride levels to a certain extent,could reduce the serum total cholesterol and triglyceride levels to a certain extent,could reduce blood glucose to a certain extent,weight gain,could reduce the serum total cholesterol and triglyceride levels to a certain extent,could reduce the serum total cholesterol and triglyceride levels to a certain extent,could reduce blood glucose to a certain extent,weight gain
"OC[C@H]1O[C@@H](c2ccc(Cl)c(Cc3ccc(O[C@H]4CCOC4)cc3)c2)[C@H](O)[C@@H](O)[C@@H]1O [empagliflozin, reference compound]",,,could reduce the serum total cholesterol and triglyceride levels to a certain extent,could reduce the serum total cholesterol and triglyceride levels to a certain extent,,,,,could reduce blood glucose to a certain extent,
